Results as given in publication PMC9551036, “A selective and orally bioavailable VHL-recruiting PROTAC achieves SMARCA2 degradation in vivo” (Nature Communications, 2022).
Values joined by “and” are separate entries in the source; they are usually repeats but may differ in a detail not shown here. Equal values may be shown once. “Also recorded” adds a separate entry of the source.

Key:
SMARCA4 = SMARCA4 (Homo sapiens, UniProt P51532); test: Ex vivo human whole blood assay, SMARCA4; assay type: cell-based; set-up: endogenous in cells; settings: for HillSlope (best-fit value): four-parameter fit; for Bottom (best-fit value) / Span (best-fit value) / Top (best-fit value): four-parameter fit of % protein remaining
SMARCA4, sequence (P51532 whole entry): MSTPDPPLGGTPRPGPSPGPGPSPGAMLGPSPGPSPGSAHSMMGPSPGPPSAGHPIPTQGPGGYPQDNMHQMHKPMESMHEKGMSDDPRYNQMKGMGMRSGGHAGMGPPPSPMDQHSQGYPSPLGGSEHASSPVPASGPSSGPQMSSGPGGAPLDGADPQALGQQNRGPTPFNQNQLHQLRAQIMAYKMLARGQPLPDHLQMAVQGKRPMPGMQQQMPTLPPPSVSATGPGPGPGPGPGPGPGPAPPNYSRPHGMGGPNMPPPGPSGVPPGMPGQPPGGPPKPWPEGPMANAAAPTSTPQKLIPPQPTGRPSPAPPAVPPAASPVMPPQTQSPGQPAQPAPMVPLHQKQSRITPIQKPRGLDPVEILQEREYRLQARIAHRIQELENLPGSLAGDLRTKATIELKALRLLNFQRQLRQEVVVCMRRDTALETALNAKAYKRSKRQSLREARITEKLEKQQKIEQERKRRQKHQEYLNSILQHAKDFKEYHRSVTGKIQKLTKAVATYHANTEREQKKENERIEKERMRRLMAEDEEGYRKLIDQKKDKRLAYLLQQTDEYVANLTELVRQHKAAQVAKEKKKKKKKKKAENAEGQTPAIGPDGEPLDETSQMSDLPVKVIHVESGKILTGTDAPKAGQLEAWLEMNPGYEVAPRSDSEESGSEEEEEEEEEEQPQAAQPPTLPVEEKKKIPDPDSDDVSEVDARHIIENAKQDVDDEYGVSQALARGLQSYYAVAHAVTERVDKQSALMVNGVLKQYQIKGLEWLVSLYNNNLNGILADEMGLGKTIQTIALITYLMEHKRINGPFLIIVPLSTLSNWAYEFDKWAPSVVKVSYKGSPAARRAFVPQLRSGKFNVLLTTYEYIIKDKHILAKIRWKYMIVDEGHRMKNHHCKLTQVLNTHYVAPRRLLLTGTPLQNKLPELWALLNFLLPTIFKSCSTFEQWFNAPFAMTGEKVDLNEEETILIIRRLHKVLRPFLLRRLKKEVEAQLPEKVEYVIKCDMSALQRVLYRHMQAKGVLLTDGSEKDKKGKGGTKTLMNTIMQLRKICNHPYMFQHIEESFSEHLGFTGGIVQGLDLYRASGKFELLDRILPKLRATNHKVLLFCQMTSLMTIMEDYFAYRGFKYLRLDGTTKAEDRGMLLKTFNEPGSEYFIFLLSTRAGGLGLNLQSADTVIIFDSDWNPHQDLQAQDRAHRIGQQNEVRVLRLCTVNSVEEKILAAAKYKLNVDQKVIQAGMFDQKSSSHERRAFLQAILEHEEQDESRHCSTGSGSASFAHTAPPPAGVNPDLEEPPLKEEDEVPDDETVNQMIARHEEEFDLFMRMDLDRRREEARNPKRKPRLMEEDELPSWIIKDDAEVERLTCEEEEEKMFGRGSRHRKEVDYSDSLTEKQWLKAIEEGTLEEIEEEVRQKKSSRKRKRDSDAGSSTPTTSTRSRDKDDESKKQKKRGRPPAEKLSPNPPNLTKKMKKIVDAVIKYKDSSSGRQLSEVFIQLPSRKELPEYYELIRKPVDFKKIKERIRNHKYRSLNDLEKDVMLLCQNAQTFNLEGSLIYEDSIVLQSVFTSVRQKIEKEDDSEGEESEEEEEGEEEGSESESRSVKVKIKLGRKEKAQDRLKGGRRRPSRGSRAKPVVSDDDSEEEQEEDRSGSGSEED
Method: The assay was performed on human whole blood from three healthy donors, purchased from the Austrian Red Cross who always obtain samples under informed consent. […] Subsequently, peripheral blood mononucleated cells (PBMCs) were isolated from individual aliquots using SepMate Tubes (StemCell) and Lymphoprep (StemCell) medium according to the manufacturer’s instructions and protein lysates were prepared using MSD Lysis buffer (Mesocale Discovery) supplemented with 1:100 Halt Phosphatase-Protease Inhibitor Cocktail (Thermo Fisher), 0.5 µl/ml benzonase (Novagen) and 10 mM DTT. SMARCA2 and SMARCA4 protein levels were determined using capillary electrophoresis (Bio-Techne) according to manufacturer’s instructions. Incubation with primary antibodies for SMARCA2 (Cell Signalling #11966 clone D9E8B RRID:AB_2797783 1:25), SMARCA4 (Abcam #ab110641 clone EPNCIR111A RRID:AB_10861578 1:25) and GAPDH (Abcam, #ab9485 RRID:AB_307275 1:1000) were performed for 30 min.

SMARCA2 = SMARCA2 (Homo sapiens, UniProt P51531); test: SMARCA2 IHC in A549 xenograft tumours; assay type: in vivo, mouse; set-up: from tissue; host or cells: subcutaneous NCI-H1568 or A549 xenograft tumours in BomTac:NMRI-Foxn1nu mice
SMARCA2, sequence (P51531 whole entry): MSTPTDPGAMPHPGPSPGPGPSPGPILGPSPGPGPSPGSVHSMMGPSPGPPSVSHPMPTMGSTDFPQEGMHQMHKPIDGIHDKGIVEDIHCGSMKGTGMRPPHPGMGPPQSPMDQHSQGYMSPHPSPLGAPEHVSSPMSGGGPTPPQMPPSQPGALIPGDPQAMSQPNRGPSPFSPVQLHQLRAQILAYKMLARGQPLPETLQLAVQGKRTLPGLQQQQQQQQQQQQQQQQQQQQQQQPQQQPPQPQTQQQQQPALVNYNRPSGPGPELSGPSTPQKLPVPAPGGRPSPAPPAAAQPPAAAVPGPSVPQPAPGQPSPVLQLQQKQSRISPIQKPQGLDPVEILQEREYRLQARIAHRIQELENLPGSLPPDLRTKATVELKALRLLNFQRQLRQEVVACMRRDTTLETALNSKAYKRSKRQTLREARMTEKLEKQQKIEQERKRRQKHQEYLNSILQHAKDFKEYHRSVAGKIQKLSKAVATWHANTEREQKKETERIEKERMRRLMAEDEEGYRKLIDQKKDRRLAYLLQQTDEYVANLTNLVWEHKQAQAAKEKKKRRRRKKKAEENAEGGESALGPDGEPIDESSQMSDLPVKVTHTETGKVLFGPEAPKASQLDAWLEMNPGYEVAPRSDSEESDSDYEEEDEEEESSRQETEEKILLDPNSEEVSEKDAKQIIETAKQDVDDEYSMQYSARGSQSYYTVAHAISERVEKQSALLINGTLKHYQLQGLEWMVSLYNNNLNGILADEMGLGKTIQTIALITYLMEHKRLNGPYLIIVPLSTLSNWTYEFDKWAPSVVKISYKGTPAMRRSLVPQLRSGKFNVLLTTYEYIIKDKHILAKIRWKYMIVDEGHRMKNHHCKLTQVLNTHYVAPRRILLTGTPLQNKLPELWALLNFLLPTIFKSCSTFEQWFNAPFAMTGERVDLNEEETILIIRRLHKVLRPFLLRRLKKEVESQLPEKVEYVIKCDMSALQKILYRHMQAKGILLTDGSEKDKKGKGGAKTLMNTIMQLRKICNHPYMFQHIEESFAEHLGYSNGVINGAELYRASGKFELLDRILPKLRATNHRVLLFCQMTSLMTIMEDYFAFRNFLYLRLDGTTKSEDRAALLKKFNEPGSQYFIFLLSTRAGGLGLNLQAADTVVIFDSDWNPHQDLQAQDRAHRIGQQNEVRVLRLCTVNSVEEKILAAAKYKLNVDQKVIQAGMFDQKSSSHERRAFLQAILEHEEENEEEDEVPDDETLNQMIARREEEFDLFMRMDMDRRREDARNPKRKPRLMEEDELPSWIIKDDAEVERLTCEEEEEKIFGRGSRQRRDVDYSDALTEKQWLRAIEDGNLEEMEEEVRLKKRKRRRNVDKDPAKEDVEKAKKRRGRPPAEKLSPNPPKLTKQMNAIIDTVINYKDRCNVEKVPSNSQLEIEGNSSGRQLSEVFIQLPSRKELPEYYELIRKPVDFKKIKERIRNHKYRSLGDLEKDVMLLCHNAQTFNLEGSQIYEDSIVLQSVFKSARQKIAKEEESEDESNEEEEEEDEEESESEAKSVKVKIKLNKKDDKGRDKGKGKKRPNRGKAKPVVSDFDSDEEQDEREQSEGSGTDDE
Method: To establish subcutaneous tumours, mice were injected with 5 × 10^6 NCI-H1568 in PBS with 5% FCS or with 1 × 10^7 A549 cells in PBS with 5% FCS. Tumour diameters were measured with a caliper three times a week. The volume of each tumour (in mm^3) was calculated according to the formula [tumour volume = length × diameter^2 × π/6]. To monitor side effects of treatment, mice were inspected daily for abnormalities and body weight was determined daily after the start of treatment. Animals were sacrificed when the tumours reached a size of 1500 mm^3. Mice were randomised into treatment groups when the average tumour size reached ~210–220 mm^3. Group sizes were calculated individually for each tumour model based on tumour growth during model establishment experiments. A power analysis was performed using a sample size calculator (https://www.stat.ubc.ca/~rollin/stats/ssize/n2.html). For both models used in the study, 10 mice per group were used for each experiment. All administrations were dosed with 10 ml/kg (s.c. and oral). Control mice were dosed subcutaneously with 10% HP-β-CD in 50% Ringer solution and orally with 15% HP-β-CD, that means the control mouse treatment was corresponding to the solvent of the compounds. Compound 6 was dosed subcutaneously either in a d1-4 q3d, d6-8 q2d, d11-13 q2d treatment (Treatment 1) or a q3 or 4d treatment (Treatment 2).
Xenograft samples were fixed in 10% formaldehyde for 24 h and later moved to ethanol and embedded in paraffin. 2 µm-thick sections were cut using a microtome, then placed on glass slides ([…], silan printer slides PR-S:001), and subsequently dewaxed. […] All slides were reviewed and evaluated for quality by a board-certified MD specialist in Anatomic Pathology (PC). […] A positivity threshold for DAB OD was determined by normalisation with respect to the DAB OD as calculated from bona fide negative tissue (e.g. murine stroma as background). The average, background-normalised DAB OD of tumour cell nuclei was used to quantitate SMARCA2 expression in each xenograft sample.

Cc1ncsc1-c1ccc(C(CCC(C)CCN2CCC(c3ccc4c(c3)n(C3CCCC3)c3nc(=O)c5c(Br)cccc5n43)CC2)NC(=O)C2CC(O)CN2C(=O)C(NC(=O)C2(F)CC2)C(C)(C)C)cc1 (centres unmarked) [ACBI2]
% protein remaining, SMARCA4 (SMARCA4; Donor 1, log10[concentration (mol/l)] -6): 46.277% and 56.0869% and 48.4826%
% protein remaining, SMARCA4 (SMARCA4; Donor 1, log10[concentration (mol/l)] -6.47712): 107.389% and 70.5686% and 73.1116%
% protein remaining, SMARCA4 (SMARCA4; Donor 1, log10[concentration (mol/l)] -6.95424): 84.4427% and 113.429% and 101.258%
% protein remaining, SMARCA4 (SMARCA4; Donor 1, log10[concentration (mol/l)] -7.43136): 119.708% and 145.145% and 104.637%
% protein remaining, SMARCA4 (SMARCA4; Donor 1, log10[concentration (mol/l)] -7.90848): 127.921% and 114.745% and 82.4839%
% protein remaining, SMARCA4 (SMARCA4; Donor 1, log10[concentration (mol/l)] -8.38561): 104.578% and 95.4334% and 80.9398%
HillSlope (best-fit value) (SMARCA4; Donor 1 SMARCA4): -2.117
Bottom (best-fit value) (SMARCA4; Donor 1 SMARCA4): 40.33%
Span (best-fit value) (SMARCA4; Donor 1 SMARCA4): 66.56%
Top (best-fit value) (SMARCA4; Donor 1 SMARCA4): 106.9%
% protein remaining, SMARCA4 (SMARCA4; Donor 2, log10[concentration (mol/l)] -6): 50.102% and 76.224% and 84.3004%
% protein remaining, SMARCA4 (SMARCA4; Donor 2, log10[concentration (mol/l)] -6.47712): 93.5183% and 92.0167% and 75.7642%
% protein remaining, SMARCA4 (SMARCA4; Donor 2, log10[concentration (mol/l)] -6.95424): 80.3377% and 113.951% and 102.967%
% protein remaining, SMARCA4 (SMARCA4; Donor 2, log10[concentration (mol/l)] -7.43136): 130.957% and 130.042% and 111.295%
% protein remaining, SMARCA4 (SMARCA4; Donor 2, log10[concentration (mol/l)] -7.90848): 121.533% and 102.344% and 98.5667%
% protein remaining, SMARCA4 (SMARCA4; Donor 2, log10[concentration (mol/l)] -8.38561): 105.689% and 139.901% and 105.419%
% protein remaining, SMARCA4 (SMARCA4; Donor 2, log10[concentration (mol/l)] -8.86273): 54.3169% and 99.7184% and 98.048%
HillSlope (best-fit value) (SMARCA4; Donor 2 SMARCA4): -2.11
Bottom (best-fit value) (SMARCA4; Donor 2 SMARCA4): 67.18%
Span (best-fit value) (SMARCA4; Donor 2 SMARCA4): 40.18%
Top (best-fit value) (SMARCA4; Donor 2 SMARCA4): 107.4%
% protein remaining, SMARCA4 (SMARCA4; Donor 3, log10[concentration (mol/l)] -6.47712): 88.0329% and 79.2762% and 67.3837%
% protein remaining, SMARCA4 (SMARCA4; Donor 3, log10[concentration (mol/l)] -6.95424): 92.9994% and 98.4764% and 74.8427%
% protein remaining, SMARCA4 (SMARCA4; Donor 3, log10[concentration (mol/l)] -7.43136): 95.6107% and 82.1879% and 123.028%
% protein remaining, SMARCA4 (SMARCA4; Donor 3, log10[concentration (mol/l)] -7.90848): 125.23% and 122.739% and 76.3116%
% protein remaining, SMARCA4 (SMARCA4; Donor 3, log10[concentration (mol/l)] -8.38561): 96.5427% and 109.291% and 74.8647%
% protein remaining, SMARCA4 (SMARCA4; Donor 3, log10[concentration (mol/l)] -8.86273): 92.1949% and 111.194% and 102.774%
HillSlope (best-fit value) (SMARCA4; Donor 3 SMARCA4): -1.413
Bottom (best-fit value) (SMARCA4; Donor 3 SMARCA4): 61.66%
Span (best-fit value) (SMARCA4; Donor 3 SMARCA4): 39.83%
Top (best-fit value) (SMARCA4; Donor 3 SMARCA4): 101.5%
SMARCA4 degradation in human whole blood (SMARCA4; up to a top concentration of 1 µM): ≤ 50%
SMARCA2 staining in tumours at the end of the efficacy study (SMARCA2; A549 xenograft, 80 mg/kg p.o. once daily, 80 mg/kg): reduced to background levels; also recorded: decreased to background levels
SMARCA2 (OD, normalised) (SMARCA2; Fig4h, 80 mg/kg po qd, background OD 0.05910 subtracted): 0.00000
Avg Stain 1 Nuclear OD (SMARCA2; Fig4h, 80 mg/kg po qd, per animal): 0.04104 and 0.05262 and 0.08316 and 0.0589 and 0.03791 and 0.04411
